Results reported in paper PMC9231089, “Sorafenib Chemosensitization by Caryophyllane Sesquiterpenes in Liver, Biliary, and Pancreatic Cancer Cells: The Role of STAT3/ABC Transporter Axis” (Pharmaceutics, 2022).
Structures can show the parent of a compound that is named as a salt.

Assays:
Mz-ChA-1 [1] = assay: MTT cytotoxicity assay, substances alone, Mz-ChA-1; type: cell-based, human; settings: for IC50: Homo sapiens, substance alone, 4 h exposure + 72 h recovery
Protocol: (§1) Suitable vehicle controls were also included.
(§2) The effect of the treatments on cell viability was measured by the MTT assay as previously described. A higher than 30% reduction of cell viability was considered as a significant cytotoxic effect.

Bx-PC3 [2] = assay: MTT cytotoxicity assay, substances alone, Bx-PC3; type: cell-based, human; settings: for IC50: Homo sapiens, BXPC-3, substance alone, 4 h exposure + 72 h recovery
Protocol: as §1, §2

MDR1 = assay: RT-qPCR gene expression in Bx-PC3 cells, MDR1; settings: for increase of MDR1 gene expression with respect to control: substance alone, 4 h exposure + 72 h recovery
Protocol: (§5) Confluent cells were treated with the test substances, both alone or in combination with the anticancer drug, for 4 h, then washed and incubated for a further 72 h (Figure 1), according to previously published protocols [20]. […] Suitable vehicle controls were also included.
(§6) The results of mRNA abundance for the targeted genes in each sample were normalized on the basis of GAPDH (Bio-Rad, Hercules, CA, USA) mRNA. Data are expressed as 2^−ΔCt, calculated using the CFX Manager software (Bio-Rad).

Mz-ChA-1 [3] = assay: Combination assay with sorafenib (MTT), Mz-ChA-1; type: cell-based, human;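 as to increase of sorafenib cytotoxicity in combination: percent increase of sorafenib cell viability inhibition versus sorafenib alone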
Protocol: as §1
(§3) The type of interaction (synergistic, additive, or antagonistic) among sorafenib and test substances or positive controls was evaluated by measuring the reversal ratio value (RR), combination index (CI), and isobolographic analysis (IB), as previously described.

MRP1/2 [4] = assay: ABC-mediated drug efflux assay, calcein-AM accumulation, Bx-PC3 cells; type: cell-based, human; settings: 2 h pre-treatment, sesquiterpenes 10 μg/mL, MK571 1 μg/mL, vs control
Protocol: (§7) Fluorescence was measured at excitation and emission wavelengths of 485 nm and 535 nm for both probes, using a Cytation 1 Cell Imaging Multimode Reader (Biotech, Santa Clara, CA, USA). Results were normalized to viable cells and expressed as percentage of the negative control.

Pgp = assay: Immunofluorescence analysis in Bx-PC3 cells, Pgp; type: cell-based, human; settings: for effect on Pgp expression (immunofluorescence): substance alone, sorafenib and sesquiterpenes 10 µg/mL, verapamil 1 µg/mL
Protocol: as §1
(§4) The analysis was performed according to previously published methods. Confluent cells were seeded in 24-well plates (2 × 10^4 cells/well), allowed to adhere overnight, then treated as described above. After treatment, cells were fixed in pure methanol and washed with 4% bovine serum albumin (BSA) and PBS + Tween 20 (PBS-T) for 1 h. […] The expression and localization of Pgp, MRP1, and MRP2 pumps into cells were analyzed by using a Cytation 1 Cell Imaging Multimode Reader (Biotech, USA).

MRP2 [5] = assay: RT-qPCR gene expression in Bx-PC3 cells, MRP2
Protocol: as §5, §6

Bx-PC3 [6] = assay: Combination assay with sorafenib (MTT), Bx-PC3; type: cell-based, human;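 as to increase of sorafenib cytotoxicity in combination: percent increase of sorafenib cell viability inhibition versus sorafenib alone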
Protocol: as §1, §3

[7] = system: noncancerous H69 cholangiocytes; assay: Combination assay with sorafenib (MTT), tolerability in H69; type: cell-based, human; settings: sesquiterpene 10 μg/mL combined with sorafenib (protective effect at sorafenib 10 μg/mL)
Protocol: as §1, §3

HepG2 [8] = assay: MTT cytotoxicity assay, substances alone, HepG2; type: cell-based, human
Protocol: as §1, §2

[9] = system: noncancerous H69 cholangiocytes; assay: MTT cytotoxicity assay (tolerability), substances alone, H69; type: cell-based, human; settings: for CC50: Homo sapiens, H69 noncancerous cholangiocytes, substance alone, 4 h exposure + 72 h recovery, read-out: IC50 (CL)
Protocol: as §1, §2

HepG2 [10] = assay: Combination assay with sorafenib (MTT), HepG2; type: cell-based, human; settings: for increase of sorafenib cytotoxicity in combination: verapamil/MK571 1 µg/mL or sesquiterpenes 10 µg/mL;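 as to increase of sorafenib cytotoxicity in combination: percent increase of sorafenib cell viability inhibition versus sorafenib alone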
Protocol: as §1, §3

[11] = parameters: method as in PMID 33081075; settings: European Food Safety Authority; cited from earlier work
MRP1/2 [12] = assay: ABC-mediated drug efflux assay, calcein-AM accumulation, HepG2 cells; type: cell-based, human; settings: 2 h pre-treatment, sesquiterpenes 10 μg/mL, vs control
Protocol: as §7

MRP1/2 [13] = assay: ABC-mediated drug efflux assay, calcein-AM accumulation, Mz-ChA-1 cells; type: cell-based, human; settings: 2 h pre-treatment, sesquiterpenes 10 μg/mL, vs control
Protocol: as §7

phospho(Tyr705)-STAT3 = assay: Western blotting of STAT3 phosphorylation in Bx-PC3 cells; type: cell-based, human; settings: for increase of STAT3 phosphorylation at tyrosine 705: substance alone, sorafenib and sesquiterpenes 10 μg/mL, verapamil/MK571 1 μg/mL, normalized to total STAT3
Protocol: as §1
Confluent cells were seeded in 6-well plates (5 × 10^5 cells/well), treated as described above, then harvested by centrifugation and washed in PBS. After lysis with a suitable buffer, the Western blotting analysis was carried out, according to previously published methods. […] The levels of phospho(Tyr705)-STAT3 were normalized against total STAT3 ones.

MRP1 [14] = assay: RT-qPCR gene expression in Bx-PC3 cells, MRP1; type: cell-based, human
Text: as §1

MRP2 [15] = assay: Immunofluorescence analysis in Bx-PC3 cells, MRP2; type: cell-based, human
Protocol: as §1, §4

MRP1 [16] = assay: Immunofluorescence analysis in Bx-PC3 cells, MRP1; type: cell-based, human
Protocol: as §1, §4

Bx-PC3 cells = assay: Wound healing assay (cell migration); type: cell-based, human
Protocol: To evaluate the effect of caryophyllane sesquiterpenes, both alone and in combination with sorafenib, on the cell migration rate, the wound healing assay was performed. Bx-PC3 cells were seeded in 24-well plate at a density of 2.5 × 10^5 cells/well. After 24 h, the wound was created by scratching the well bottom with a 100 μL pipette tip, then the cells were treated under the scheduled conditions and images were captured at 0, 4, and 72 h using a Cytation 1 Cell Imaging Multi-Mode Reader. […] Results were expressed as wound area percentage with respect to that of the same well at zero time. The positive controls were also included.

[17] = substance in combination with sorafenib 10 μg/mL
[18] = substance in combination with sorafenib, given for MRP1 and MRP2 together
[19] = substance 10 µg/mL in combination with sorafenib 10 µg/mL

## C=C1CC/C=C(\C)CC[C@@H]2[C@@H]1CC2(C)C [β-Caryophyllene, β-caryophyllene]
Mz-ChA-1 [1]; Mz-ChA-1
  IC50: 62.7 µg/mL
  IC50 lower with respect to sorafenib: approximately 1.2 fold
  higher cytotoxicity with respect to β-caryophyllene oxide: approximately 1.5 fold
Mz-ChA-1 [1]; Mz-ChA-1, 50 µg/mL
  inhibition of cell viability: 35%
Mz-ChA-1 [1]; Mz-ChA-1, 250 µg/mL
  inhibition of cell viability: 96%
Bx-PC3 [2]
  IC50 higher than that of sorafenib: comparable
  higher cytotoxicity with respect to β-caryophyllene oxide: ~1.8 fold
  IC50: 36.3 µg/mL
Bx-PC3 [2]; 50 µg/mL
  inhibition of cell viability: 70%
Bx-PC3 [2]; 250 µg/mL
  inhibition of cell viability: 95%
MDR1
  increase of MDR1 gene expression with respect to control: 2.7 fold
MDR1; substance in combination with sorafenib
  downregulation of MDR1 gene with respect to sorafenib alone: 1.9 fold
Mz-ChA-1 [3]
  reduction of sorafenib IC50 in the presence of the substance: approximately 1.7 fold
Mz-ChA-1 [3]; CI lower than 1 = synergistic
  combination index (CI) with sorafenib: 0.74
Mz-ChA-1 [3]; sorafenib 10 µg/mL, verapamil/MK571 1 µg/mL or sesquiterpenes 10 µg/mL
  increase of sorafenib cytotoxicity in combination: 19%
Mz-ChA-1 [3]; sorafenib 50 µg/mL, sesquiterpenes 10 µg/mL
  increase of sorafenib cytotoxicity in combination: 17%
MRP1/2 [4]
  increase of calcein-AM accumulation: 1.9 fold
Pgp
  effect on Pgp expression (immunofluorescence): did not affect
Pgp; [17]
  reduction of Pgp expression compared to control: ~1.9 fold
MRP2 [5]; [18]
  reduction of MRP2 gene expression: 4 fold
Bx-PC3 [6]
  reduction of sorafenib IC50 in the presence of the substance: 5 fold
Bx-PC3 [6]; CI lower than 1 = synergistic
  combination index (CI) with sorafenib: 0.46
Bx-PC3 [6]; sesquiterpenes 10 µg/mL, sorafenib concentration not stated (Figure 3F)
  increase of sorafenib cytotoxicity in combination: 56%
[7]
  effect on sorafenib cytotoxicity in noncancerous cells: slight protective effects
HepG2 [8]; HepG2
  IC50 higher than that of sorafenib: 1.6 fold
[9]
  CC50: 67 µg/mL
HepG2 [10]
  reduction of sorafenib IC50 in the presence of the substance: approximately 2.9 fold
HepG2 [10]; CI lower than 1 = synergistic
  combination index (CI) with sorafenib: 0.47
HepG2 [10]; sorafenib 1 µg/mL
  increase of sorafenib cytotoxicity in combination: 5%
HepG2 [10]; sorafenib 10 µg/mL
  increase of sorafenib cytotoxicity in combination: approximately 33%
[11]
  considered safe up to (approved as flavoring): ≤ 222 mg/kg/die
MRP1/2 [12]
  increase of calcein-AM accumulation: 1.2 fold
MRP1/2 [13]
  increase of calcein-AM accumulation: 1.3 fold
phospho(Tyr705)-STAT3
  increase of STAT3 phosphorylation at tyrosine 705: approximately 3 fold
phospho(Tyr705)-STAT3; [17]
  reduction of phospho(Tyr705)-STAT3 with respect to sorafenib: 2.1 fold
MRP1 [14]; [18]
  reduction of MRP1 gene expression: 4 fold
MRP2 [15]; [19]
  reduction of MRP2 expression with respect to sorafenib: 1.3 fold
MRP2 [15]; substance alone, 10 µg/mL
  increase of MRP2 expression (immunofluorescence): 1.4 fold
MRP1 [16]; [19]
  reduction of MRP1 expression with respect to sorafenib: 1.8 fold
Bx-PC3 cells; substance alone, sesquiterpenes 10 µg/mL, verapamil/MK571 1 µg/mL
  wound area / cell migration after 72 h: almost complete closure of wound area
Bx-PC3 cells; substance in combination with sorafenib 10 µg/mL, reference and time not stated
  increase of wound area: ~4.1 fold

## CNC(=O)c1cc(Oc2ccc(NC(=O)Nc3ccc(Cl)c(C(F)(F)F)c3)cc2)ccn1 [Sorafenib, sorafenib tosylate]
Mz-ChA-1 [1]; Mz-ChA-1
  IC50: 76.1 µg/mL
Mz-ChA-1 [1]; Mz-ChA-1, 50 µg/mL
  inhibition of cell viability: about 30%
Mz-ChA-1 [1]; Mz-ChA-1, 250 µg/mL
  inhibition of cell viability: about 90%
Mz-ChA-1 [1]; Mz-ChA-1 vs Bx-PC3
  IC50 higher with respect to Bx-PC3 cells: ~2.4 fold
Bx-PC3 [2]; 50 µg/mL
  inhibition of cell viability: 70%
Bx-PC3 [2]
  IC50: 31 µg/mL
Bx-PC3 [2]; concentrations higher than 50 µg/mL
  cell viability at the higher tested concentrations: almost completely inhibited
MDR1
  increase of MDR1 gene expression with respect to control: 3.6 fold
Pgp
  effect on Pgp expression (immunofluorescence): slight increase
MRP2 [5]; substance alone
  decrease of MRP2 gene expression: ~2 fold
HepG2 [8]; HepG2, 10 µg/mL
  inhibition of cell viability: approximately 10%
HepG2 [8]; HepG2, 500 µg/mL
  inhibition of cell viability: 95%
HepG2 [8]; HepG2 vs Bx-PC3
  IC50 higher with respect to Bx-PC3 cells: approximately 1.5 fold
[9]; H69 vs Mz-ChA-1
  higher cytotoxicity in normal H69 cells than in cancerous Mz-ChA-1 cholangiocytes (IC50 comparison): approximately 1.5 fold
[9]
  CC50: 50.3 µg/mL
phospho(Tyr705)-STAT3
  increase of STAT3 phosphorylation at tyrosine 705: 4.6 fold
MRP1 [14]; substance alone
  decrease of MRP1 gene expression: ~2 fold
MRP2 [15]; substance alone
  effect on MRP2 transporter expression (immunofluorescence): significantly lowered
MRP1 [16]; substance alone, 10 µg/mL
  lowering of MRP1 expression compared to control (immunofluorescence): 1.2 fold
Bx-PC3 cells; sorafenib 10 µg/mL alone
  change of wound area after 4 h: slight reduction
  increase of wound area at 72 h: 1.2 fold
